Test results: article PMC3342448 (Cancer Research, 2012)

Tests used:
[1] = target: MT1-MMP homodimerization (Homo sapiens, UniProt P50281); experiment: MT1-MMP dimerization test; assay type: cell-based; conditions: compounds 100 μM, 24 h, MCF7-MT-V5 cells transfected with MT1-MMP-FLAG
[2] = system: 184B5-MT cells; experiment: Transwell migration assay on COL-I, 184B5-MT cells; assay type: cell-based, Human; conditions: compounds 10–100 μM, 16–18 h
[3] = system: MCF7-β3/MT cells; experiment: COL-I degradation assay, MCF7-β3/MT cells; assay type: cell-based, Human; conditions: compound 100 μM, 3 days
[4] = target: cellular MT1-MMP (Homo sapiens, UniProt P50281); experiment: Gelatin zymography of MMP-2 activation by 184B5-MT cells; assay type: cell-based; conditions: 184B5-MT cells with proMMP-2, compound 1–100 μM
[5] = system: MCF7-β3/MT xenografts; experiment: MCF7-β3/MT tumor xenografts in mice; assay type: in vivo
[6] = system: MCF7-β3/MT cells; experiment: Cell viability; assay type: cell-based, Human; conditions: 400 μM, 6 h
[7] = system: MDA-MB-231 cells; experiment: Transwell migration assay on COL-I, MDA-MB-231 cells; assay type: cell-based, Human; conditions: compounds 100 μM
[8] = target: MT1-MMP (Homo sapiens, UniProt P50281); experiment: Gelatin zymography of MCF7-β3/MT tumor extracts; assay type: in vivo; conditions: tumor extracts of mice treated 0.5 mg/kg intratumoral
[9] = Solubility in aqueous solutions; assay type: physicochemical; conditions: 400 μM stock in PBS was highest reachable
[10] = system: 184B5-MT cells; experiment: Cell adhesion assay on COL-I and Matrigel, 184B5-MT cells; assay type: cell-based, Human; conditions: compounds 25–100 μM, 1 h adhesion
[11] = target: CAT (Homo sapiens, UniProt P50281); experiment: Cleavage of fluorescent peptide by MT1-MMP catalytic domain; assay type: biochemical; conditions: CAT 10 nM, fluorescent substrate 10 μM
[12] = target: T1, MMP-2 (Homo sapiens, UniProt P08253); experiment: Catalytic activity of MMP-2; assay type: biochemical; conditions: not shown
T1 sequence (P08253 110-660): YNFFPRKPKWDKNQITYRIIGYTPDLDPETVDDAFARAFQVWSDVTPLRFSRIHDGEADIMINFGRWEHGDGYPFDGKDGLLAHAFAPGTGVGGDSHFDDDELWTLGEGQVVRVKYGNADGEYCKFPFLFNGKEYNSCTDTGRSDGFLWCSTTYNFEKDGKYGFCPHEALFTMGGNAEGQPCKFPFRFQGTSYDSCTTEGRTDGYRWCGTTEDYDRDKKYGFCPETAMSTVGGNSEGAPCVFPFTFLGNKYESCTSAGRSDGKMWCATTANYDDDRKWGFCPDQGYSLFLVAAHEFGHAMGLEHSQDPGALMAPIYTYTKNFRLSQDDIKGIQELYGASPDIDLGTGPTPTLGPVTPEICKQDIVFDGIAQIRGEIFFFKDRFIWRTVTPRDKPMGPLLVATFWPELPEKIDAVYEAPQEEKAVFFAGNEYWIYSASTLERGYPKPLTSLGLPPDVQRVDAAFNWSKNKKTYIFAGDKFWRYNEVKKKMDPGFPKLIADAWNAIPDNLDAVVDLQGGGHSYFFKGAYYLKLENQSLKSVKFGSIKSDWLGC

SMILES: CCCC(C)NC(=O)c1ccc(Cl)c(Cl)c1 (stereo not drawn) [compound 9]
- levels of co-precipitated MT1-MMP-V5 in pull-down samples (homodimerization) [1]: significantly reduced
- migration of 184B5-MT cells on COL-I [2]: repressed migration of 184B5-MT cells on COL-I in a dose-dependent manner
- collagenolytic activity (COL-I degradation) in MCF7-β3/MT cells [3]: dramatically reduced
- catalytic function of cellular MT1-MMP (MMP-2 activation) [4]: did not inhibit
- physical damage and necrosis in tumors after injections ([5]; 0.5 mg/kg intratumoral): no physical damage and necrosis
- tumor phenotype ([5]; 0.5 mg/kg intratumoral injections): caused a fibrotic tumor phenotype
- xenograft angiogenesis (H&E staining) ([5]; 0.5 mg/kg intratumoral, compared with control mice): did not reveal any significant effect
- immunoreactivity and levels of COL-I in tumors ([5]; 0.5 mg/kg intratumoral, experimental versus control): significantly enhanced
- cytotoxicity in MCF7-β3/MT cells [6]: did not demonstrate any cytotoxicity
- migration of MDA-MB-231 cells [7]: did not show any inhibitory effect
- ability of MT1-MMP to activate MMP-2 in tumors [8]: did not affect
- solubility [9]: limited solubility
- adhesion of 184B5-MT on Matrigel and COL-I substrates [10]: did not affect cell adhesion
- effect on cleavage activity of CAT [11]: did not affect the cleavage activity
- catalytic activity of MMP-2 [12]: did not inhibit
